Data reported in US7018994B2, “17α-ALKYL-17β-OXY-ESTRATRIENES AND INTERMEDIATE PRODUCTS FOR THEIR PRODUCTION, USE OF THE 17α-ALKYL-17β-OXY-ESTRATRIENES FOR THE PRODUCTION OF PHARMACEUTICAL AGENTS AS WELL AS PHARMACEUTICAL PREPARATIONS” (Schering AG, priority 2001, dated 2006).

How the values were obtained:
[1] = tested on: uterus growth; experiment: Uterus growth test on infant rats (test on antiestrogenic action, antiuterotropic action); type: in vivo, rat; conditions: infant female rats, inhibition relative to EB control; for Antiuterotropic Action % Inhib. p.o.: 0.3 (mg/kg of body weight) p.o. once daily for three days with 0.5 μg estradiolbenzoate s.c.
[2] = target: T1, 17β-HSD2 (Homo sapiens, UniProt P37059); experiment: Determination of metabolic stability: in-vitro 17β-HSD test, intestinal microsomes; type: in vitro ADME; conditions: LC/MS/MS; for metabolic stability in intestinal microsomes: 37° C., 0-60 minutes, 0.3 μmol in the test batch
T1 construct: Microsome solution: intestinal microsomes (In Vitro Technologies); protein content: 24 mg/ml; tissue In Vitro Technologies; host or cells: intestinal microsomes
T1 sequence (P37059 1-387): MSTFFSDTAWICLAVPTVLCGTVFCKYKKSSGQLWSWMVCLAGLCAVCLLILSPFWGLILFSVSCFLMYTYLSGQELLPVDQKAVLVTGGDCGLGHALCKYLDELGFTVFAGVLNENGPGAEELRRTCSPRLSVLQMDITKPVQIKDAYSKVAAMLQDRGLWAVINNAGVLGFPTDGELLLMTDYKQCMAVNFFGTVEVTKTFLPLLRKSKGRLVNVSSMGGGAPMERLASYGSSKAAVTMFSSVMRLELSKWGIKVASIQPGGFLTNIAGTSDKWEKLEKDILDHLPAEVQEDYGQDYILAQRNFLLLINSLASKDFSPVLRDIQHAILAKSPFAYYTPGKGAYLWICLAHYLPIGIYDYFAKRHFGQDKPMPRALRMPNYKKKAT
From the text: Determination of metabolic stability: in-vitro 17β-HSD test
17β-HSD2 mediates the intestinal enzymatic dehydrogenization of an OH group in 17-position of the sterane skeleton into a ketone group.
For this test, the following materials are used:
Na-Phosphate buffer: 100 mmol of Na2HPO4×2H2O and 100 mmol of NaH2PO4×H2O
Test substance solution of
11β-Fluoro-7α-{5-[methyl(8,8,9,9,9-pentafluorononyl)amino]pentyl}-17α-methylestra-1,3,5(10)-triene-3,17β-diol (compound 1, as a representative of the compounds of general formula I) and
11β-Fluoro-7α-{5-[methyl(8,8,9,9,9-pentafluorononyl)amino]pentyl-estra-1,3,5(10)-triene-3,17β-diol (compound 2): […] in MeOH (0.3 μmol in the test batch).
Cofactor solution: 2 ml of glucose-6-phosphate (160 mmol)/MgCl2 (80 mmol) mixture is added to 400 μl of a glucose-6-phosphate-dehydrogenase solution, and then 15.6 mg of NADP and 13.4 mg of NAD are added.
Microsome solution: intestinal microsomes (In Vitro Technologies; protein content: 24 mg/ml; CYP450 content: 0.058 nmol/mg of protein)
In the water bath, it is thawed at 37° C. (˜60 seconds) and diluted with Na-phosphate buffer to a concentration of 5 mg/ml of protein.
In each case, 170 μl/well of the buffer and 5 μl/well of the test substance solutions are introduced into the corresponding wells, whereby double values are applied for each measuring time (0, 10, 20, 30, 45 and 60 minutes).
In each case, 250 μl of ice-cold MeOH is added to the 0-minute values. Then, 25 μl of microsome solution and 50 μl of cofactor solution are added immediately to all wells. The samples of the 0-minute values are stored without incubation at ˜−20° C. for about 24 hours. The other samples are incubated in each case for 10, 20, 30, 45 and 60 minutes at 37° C., and the dehydrogenation reaction is stopped after these times by the addition of 250 μl of ice-cold MeOH in each case. The samples are stored until measurement per LC/MS/MS at ˜−20° C., for about 24 hours and centrifuged at 3000 rpm before analysis, whereby the supernatant is measured.
(§1) The concentrations of the test substances measured per LC/MS/MS and the resulting 17 ketone product are reproduced in FIGS. 2a-2f.

[3] = Metabolic stability in liver microsomes; type: in vitro ADME; conditions: LC/MS/MS
From the text: as §1

| metabolic stability in intestinal microsomes [2] | formation of the 17-ketone product of the 17βHSD-reaction [2] | Molecule | Antiuterotropic Action % Inhib. p.o. [1] | also measured |
| --- | --- | --- | --- | --- |
| – | – | 11β-Fluoro-7α-{5-[methyl(7,7,8,8,9,9,10,10,10-nonafluorodecyl)amino]pentyl}-17α-methylestra-1,3,5 (10)-triene-3,17β-diol [No. 7] | – | Antiuterotropic Action % Inhib. s.c. ([1]; 0.03 (mg/kg of body weight) s.c., once daily for three days with 0.5 μg estradiolbenzoate s.c.): 59% |
| – | – | CN(CCCCCCCC(F)(F)C(F)(F)F)CCCCC[C@@H]1Cc2cc(O)ccc2[C@@H]2[C@@H]1[C@@H]1CCC(=O)[C@@]1(C)C[C@@H]2F [compound 3, 11β-fluoro-7α-{5-[methyl(8,8,9,9,9-pentafluorononyl)amino]pentyl}-estra-1,3,5(10)-trien-3-ol-17-one] | 76% | – |
| – | – | 11β-Fluoro-7α-{5-[methyl(7,7,8,8,9,9,9-heptafluorononyl)amino]pentyl}-17α-methylestra-1,3,5(10)-triene-3,17β-diol [No. 8] | 94% | – |
| degraded | the corresponding 17-ketone is produced | CN(CCCCCCCC(F)(F)C(F)(F)F)CCCCC[C@@H]1Cc2cc(O)ccc2[C@@H]2[C@@H]1[C@@H]1CC[C@H](O)[C@@]1(C)C[C@@H]2F [compound 2, reference compound] | – | – |
| metabolically stable | does not occur in any of the tissues | 11β-Fluoro-7α-{5-[methyl(8,8,9,9,9-pentafluorononyl)amino]pentyl}-17α-methylestra-1,3,5(10)-triene-3,17β-diol [compound 1] | – | formation of the 17-ketone product of the 17βHSD-reaction [3]: does not occur in any of the tissues; metabolic stability in liver microsomes [3]: not in liver microsomes |
